In US20030077709A1 (priority 2000, published 2003):

Experiments:
[1] = tested on: JULF2 stably expressing CHO cell; assay: Cell migration inhibition by JULF2 antagonist for migration of JULF2 stably expressing CHO cell toward LTB4; assay type: cell-based, human; settings: compound 0.03 to 100 μM in upper layer, 100 nM LTB4 in lower layer
Description: (§1) A 8 μm pore polycarbonate frame filter (mfd. by Neuroprobe) was treated with 10 μg/ml fibronectin (Asahi Technoglass)/PBS at 4° C. overnight. […] After 4 hours of culturing at 37° C. in a CO2 incubator, the frame filter was fixed with methanol and stained with Diff-Quik Staining Kit (International Reagents Corporation). The upper surface of this filter (the side on which cells were set) was wiped and air-dried and then absorbance at 595 nm was measured using a plate reader (Molecular Devices). Also, in order to examine pertussis toxin (PTX) sensitivity of the JULF2 stably expressing CHO cells, JULF2 stably expressing CHO cells treated with 50 ng/ml PTX for 20 hours were subjected to a cell migration test (FIG. 2).

[2] = molecular target: T1, JULF2 (Homo sapiens, UniProt Q9NPC1); assay: Screening of compounds which inhibit cAMP inhibition action by LTB4 using JULF2 stably expressing CHO cell; assay type: cell-based
T1 construct: expressed in transfected cells
T1 sequence (Q9NPC1 1-358): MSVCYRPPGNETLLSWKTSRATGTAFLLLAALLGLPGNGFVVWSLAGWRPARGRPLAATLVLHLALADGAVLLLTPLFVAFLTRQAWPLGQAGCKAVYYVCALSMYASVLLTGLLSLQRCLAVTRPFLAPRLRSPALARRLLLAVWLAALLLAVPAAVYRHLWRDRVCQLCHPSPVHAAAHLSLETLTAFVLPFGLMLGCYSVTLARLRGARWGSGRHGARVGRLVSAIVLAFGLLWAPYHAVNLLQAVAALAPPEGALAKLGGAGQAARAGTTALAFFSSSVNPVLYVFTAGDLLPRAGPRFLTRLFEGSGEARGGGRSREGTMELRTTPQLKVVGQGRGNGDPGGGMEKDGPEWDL
Text: The compound A, compound B and compound C are commercially available reagents, and compound A is on the market as a code number 0199-0032 of ChemDiv, Inc, and compound B as a code number TPB-488 of InterBioScreen. […] In this connection, the property of the compound A to show anti-inflammatory effect is also described in Biochemical Pharmacology, 51, 737-742, 1996.

[3] = molecular target: T1, JULF2; assay: Inhibition of binding of [3H]LTB4 to JULF2 expressing cell membrane fraction
Description: The DNA fragment obtained in Example 1 coding for JULF2 was digested with XbaI and then cloned into pCEP4 (mfd. by Invitrogen) to be used as an expression vector (pCEP4-JULF2) for expressing JULF2. HEK293-EBNA strain was inoculated into a 15 cm Petri dish at a density of 5×10^6 cells and cultured for 1 day, and then 20 μg of pCEP4-JULF2 was subjected to gene transfer using Lipofectamine-2000 (mfd. by Gibco BRL). The gene-transferred cells were recovered 24 hours thereafter, washed, suspended in 20 mM Tris-HCl (pH 7.4)/5 mM EDTA and then homogenized using Polytron. After ultracentrifugation, the sediment was suspended in 20 mM Tris-HCl (pH 7.4) and used as a membrane fraction.
A liquid scintillation was added to the glass filter and the radioactivity was measured using a liquid scintillation counter.

[4] = tested on: control vector-introduced CHO cells; assay: cAMP production test toward LTB4 in control vector-introduced CHO cells; assay type: cell-based; settings: 1 μM forskolin, 0 to 1 μM LTB4
Description: The CHO-dhfr(−) strain was inoculated at a density of 1×10^6 cells into a 10 cm Petri dish containing αMEM (supplemented with nucleic acids) medium/10% fetal bovine serum and cultured for 1 day and then subjected to gene transfer of 8 μg of pEF-BOS-dhfr-Jul22 and pEF-BOS-dhfr (control vector) using FuGENE6 (mfd. by Boehringer Mannheim). The gene-transferred cells were recovered 24 hours thereafter, suspended in αMEM (nucleic acid-free) medium/100 nM methotrexate (mfd. by Wako Pure Chemical Industries)/10% fetal bovine serum and then serially diluted and inoculated again into the 10 cm Petri dish. Colonies formed after 2 weeks were separately isolated and used as JULF2 stably expressing CHO cells.
Each of the JULF2 stably expressing CHO cells and control vector-introduced CHO cells was inoculated into a 24 well plate at a density of 1×10^5 cells. […] After 30 minutes at 37° C., the culture supernatant was discarded and the cells were lysed using a cAMP EIA System (BIOTRAK; mfd. by Amersham) cell lysis solution.
Measurement of the produced amount of cAMP in cells under each condition was carried out using the cAMP EIA System in accordance with the attached protocol. […] On the other hand, changes in the produced amount of cAMP by the addition of LTB4 were not found in the control vector-introduced CHO cells.

[5] = tested on: rat JULF2 stably expressing CHO cell; assay: Cell migration test of rat JULF2 stably expressing CHO cell toward LTB4; assay type: cell-based; settings: same method of Example 6
Description: as §1

[6] = tested on: JULF2 stably expressing CHO cells; assay: Cell migration test of JULF2 stably expressing CHO cells toward LTB4; assay type: cell-based, human
Description: as §1

IC50 [2] [µM]	IC50 [3] [nM]	Compound	inhibition of cell migration toward LTB4 [1]	changes in the produced amount of cAMP by the addition of LTB4 [4]	LTB4 concentration at which the migration activity becomes maximum (bell type chemotaxis) [5] [nM]	LTB4 concentration at which the migration activity becomes maximum (bell type chemotaxis) ([6]; JULF2 stably expressing CHO cells, 4 hours at 37° C., LTB4 in lower layer) [nM]	inhibition of migration toward LTB4 by PTX pretreatment ([6]; JULF2 stably expressing CHO cells treated with 50 ng/ml PTX for 20 hours)
6.7	5700	CCCCCCOc1ccc(C(=N)NO)cc1 [compound B, 4-hexyloxy-N-hydroxybenzenecarboximidoamide]	inhibit cell migration toward LTB4 in a dose-dependent manner				
0.4	100	CCCCCCCCOc1ccc(C(=N)N)cc1.Cl [compound A, 4-octyloxybenzenecarboximidoamide hydrochloride]	inhibit cell migration toward LTB4 in a dose-dependent manner				
		CCCCC/C=C\C[C@@H](O)/C=C/C=C/C=C\[C@@H](O)CCCC(=O)O [LTB4, leukotriene B4]		not found	100	30	
		pertussis toxin [PTX]					completely inhibited
